Our source for the IC50 values is ChEMBL document CHEMBL3727364, “Resorcinol n-aryl amide compounds, for use as pyruvate dehydrogenase kinase inhibitors” (2015).

For the experiment, the target named is [Pyruvate dehydrogenase (acetyl-transferring)] kinase isozyme 1, mitochondrial (Homo sapiens, UniProt Q15118). The experiment can be described thus: Binding affinity to pyruvate dehydrogenase kinase 1 (unknown origin) incubated for 90 mins by VER-00160364 probe based fluorescence polarization assay. (In fluorescence polarisation assays a small probe gives low polarisation when free and higher when bound to something large.)
Sequence of [Pyruvate dehydrogenase (acetyl-transferring)] kinase isozyme 1, mitochondrial (Q15118 whole entry): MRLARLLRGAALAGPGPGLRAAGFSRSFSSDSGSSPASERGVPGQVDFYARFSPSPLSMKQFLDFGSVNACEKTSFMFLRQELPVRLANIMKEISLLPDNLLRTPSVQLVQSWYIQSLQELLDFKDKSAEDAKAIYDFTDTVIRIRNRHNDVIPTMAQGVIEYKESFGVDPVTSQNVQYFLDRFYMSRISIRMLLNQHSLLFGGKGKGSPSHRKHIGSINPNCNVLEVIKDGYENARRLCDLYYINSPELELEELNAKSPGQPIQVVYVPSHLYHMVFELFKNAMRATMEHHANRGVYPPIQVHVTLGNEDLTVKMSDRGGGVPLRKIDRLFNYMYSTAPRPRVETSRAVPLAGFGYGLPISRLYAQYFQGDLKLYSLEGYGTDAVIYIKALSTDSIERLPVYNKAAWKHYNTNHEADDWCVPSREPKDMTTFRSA
The term IC50 denotes the concentration needed to halve the response being measured. In the case of `O=C(c1ccc(N(Cc2cccnc2)C(=O)c2ccc(O)cc2O)cc1)N1CCC(O)CC1`, the IC50 worked out at 100 nM.
The same measure for `Cc1cc(S(=O)(=O)N2CCN(C)CC2)cnc1-c1ccc(N(Cc2ccccc2)C(=O)c2ccc(O)cc2O)cc1`: 10 nM.
Then `CN(Cc1ccnc2ccccc12)C(=O)c1ccc(N(Cc2ccccc2)C(=O)c2ccc(O)cc2O)cc1`, with 100 nM; and `CN(Cc1ccc2ncccc2c1)C(=O)c1ccc(N(Cc2cccnc2)C(=O)c2ccc(O)cc2O)cc1`, with 100 nM.
Compound `CC(c1ccccc1)N(C(=O)c1ccc(O)cc1O)c1ccc(C(=O)N(C)C)cc1` (configuration not stated) registered an IC50 of 1000 nM.
The same measure for `CN(Cc1cccc2cccnc12)C(=O)c1ccc(N(Cc2cccnc2)C(=O)c2ccc(O)cc2O)cc1`: 100 nM; for `Cc1cc(S(=O)(=O)NCc2ccccn2)cnc1-c1ccc(N(Cc2ccccc2)C(=O)c2ccc(O)cc2O)cc1`: 10 nM.
As to `CN(Cc1cccc2cnccc12)C(=O)c1ccc(N(Cc2cccnc2)C(=O)c2ccc(O)cc2O)cc1`, the IC50 was determined as 100 nM.
Then `COc1ccc(CN(C)C(=O)c2ccc(N(Cc3ccccc3)C(=O)c3cc(Cl)c(O)cc3O)cc2)cc1`, with 100 nM.
The same measure for `O=C(c1ccc(N(Cc2ccccc2)C(=O)c2ccc(O)cc2O)cc1)N1CCC(O)CC1`: 100 nM.
Then `Cc1ncc(C)c(-c2ccc(N(Cc3cccnc3)C(=O)c3ccc(O)cc3O)cc2)n1`, with 10 nM; and `CNC(=O)c1ccc(N(Cc2ccccc2)C(=O)c2ccc(O)cc2O)cc1`, with 1000 nM; and `CNS(=O)(=O)c1cnc(-c2ccc(N(Cc3ccccc3)C(=O)c3ccc(O)cc3O)cc2)c(C)c1`, with 100 nM.
Compound `COCCN(C)S(=O)(=O)c1cnc(-c2ccc(N(Cc3cccnc3)C(=O)c3ccc(O)cc3O)cc2)c(C)c1` showed an IC50 of 10 nM.
The same measure for `CN(Cc1ccc(OC(F)(F)F)cc1)C(=O)c1ccc(N(Cc2cccnc2)C(=O)c2ccc(O)cc2O)cc1`: 100 nM.
Then `O=C(NCc1ccc(Cl)cc1)c1ccc(N(Cc2cccnc2)C(=O)c2ccc(O)cc2O)cc1`, with 100 nM.
Then `Cc1ccc(C)c(-c2ccc(N(Cc3cccnc3)C(=O)c3ccc(O)cc3O)cc2)n1`, with 1000 nM; and `C[C@@H](c1ccccc1)N(C(=O)c1cc(Cl)c(O)cc1O)c1ccc(C(=O)N(C)C)cc1`, with 1000 nM; and `Cc1cc(S(=O)(=O)N2CCC(F)(F)CC2)cnc1-c1ccc(N(Cc2ccccc2)C(=O)c2ccc(O)cc2O)cc1`, with 1000 nM.
Regarding `Cc1cc(S(=O)(=O)NCc2ccncc2)cnc1-c1ccc(N(Cc2cccnc2)C(=O)c2ccc(O)cc2O)cc1`, the IC50 came out at 10 nM.
The same measure for `Cc1cc(S(=O)(=O)N2CCCCC2)cnc1-c1ccc(N(Cc2ccccc2)C(=O)c2ccc(O)cc2O)cc1`: 100 nM.
The same measure for `Cc1cc(S(=O)(=O)NCCN(C)C)cnc1-c1ccc(N(Cc2ccccc2)C(=O)c2ccc(O)cc2O)cc1`: 100 nM; for `CN(Cc1cccc(C(F)(F)F)c1)C(=O)c1ccc(N(Cc2ccccc2)C(=O)c2ccc(O)cc2O)cc1`: 10000 nM; for `Cc1cc(S(=O)(=O)NCc2cccnc2)cnc1-c1ccc(N(Cc2ccccc2)C(=O)c2ccc(O)cc2O)cc1`: 10 nM.
The same measure for `O=C(NC1CC1)c1ccc(N(Cc2ccccc2)C(=O)c2ccc(O)cc2O)cc1`: 1000 nM.
Consider `Cc1cc(S(=O)(=O)N2CC(F)(F)C2)cnc1-c1ccc(N(Cc2cccnc2)C(=O)c2ccc(O)cc2O)cc1`, for which the IC50 came to 10 nM.
Then `Cc1cc(S(=O)(=O)N2CCN(C)CC2)cnc1-c1ccc(N(Cc2cccnc2)C(=O)c2ccc(O)cc2O)cc1`, with 10 nM; and `Cc1cc(S(=O)(=O)NCc2ccccn2)cnc1-c1ccc(N(Cc2cccnc2)C(=O)c2ccc(O)cc2O)cc1`, with 10 nM; and `CN(C)C(=O)c1ccc(N(Cc2cccnc2)C(=O)c2cc(Cl)c(O)cc2O)cc1`, with 10 nM.
Then `CN(Cc1cccc2cccnc12)C(=O)c1ccc(N(Cc2ccccc2)C(=O)c2ccc(O)cc2O)cc1`, with 100 nM; and `COCCN(C)S(=O)(=O)c1cnc(-c2ccc(N(Cc3ccccc3)C(=O)c3ccc(O)cc3O)cc2)c(C)c1`, with 100 nM; and `CN(C)C(=O)c1ccc(N(Cc2ccccc2)C(=O)c2ccc(O)cc2O)cc1`, with 100 nM.
Then `COc1ccc(CNC(=O)c2ccc(N(Cc3cccnc3)C(=O)c3ccc(O)cc3O)cc2)cc1`, with 100 nM; and `CN(Cc1cccs1)C(=O)c1ccc(N(Cc2ccccc2)C(=O)c2ccc(O)cc2O)cc1`, with 100 nM; and `CN(Cc1ccc2nccnc2c1)C(=O)c1ccc(N(Cc2cccnc2)C(=O)c2ccc(O)cc2O)cc1`, with 10 nM.
`CN(C)C(=O)c1ccc(N(Cc2ccc(F)cc2)C(=O)c2cc(Cl)c(O)cc2O)cc1`: the IC50 turned out to be 100 nM.
Then `CC(=O)N1CCN(S(=O)(=O)c2cnc(-c3ccc(N(Cc4cccnc4)C(=O)c4ccc(O)cc4O)cc3)c(C)c2)CC1`, with 10 nM; and `CC(=O)NCCNS(=O)(=O)c1cnc(-c2ccc(N(Cc3cccnc3)C(=O)c3ccc(O)cc3O)cc2)c(C)c1`, with 10 nM; and `CC(=O)N1CCN(S(=O)(=O)c2cnc(-c3ccc(N(Cc4ccccc4)C(=O)c4ccc(O)cc4O)cc3)c(C)c2)CC1`, with 10 nM.
Then `CC(c1ccccc1)N(C(=O)c1cc(Cl)c(O)cc1O)c1ccc(C(=O)N(C)C)cc1` (configuration not stated), with 100 nM; and `CN(Cc1ccc2ncccc2c1)C(=O)c1ccc(N(Cc2ccccc2)C(=O)c2ccc(O)cc2O)cc1`, with 100 nM.
Regarding `COc1ccc(CN(C)C(=O)c2ccc(N(Cc3cccnc3)C(=O)c3cc(Cl)c(O)cc3O)cc2)cc1`, the IC50 is 10 nM.
`CN(Cc1ccc2ccccc2n1)C(=O)c1ccc(N(Cc2cccnc2)C(=O)c2ccc(O)cc2O)cc1`: the IC50 is 100 nM.
The same measure for `CN(Cc1ccc(C#N)cc1)C(=O)c1ccc(N(Cc2cccnc2)C(=O)c2ccc(O)cc2O)cc1`: 100 nM.
Consider `CN(C)C(=O)c1ccc(N(Cc2cccnc2)C(=O)c2ccc(O)cc2O)cc1`, for which the IC50 came to 100 nM.
`Cc1cc(S(=O)(=O)NCCCC(N)=O)cnc1-c1ccc(N(Cc2ccccc2)C(=O)c2ccc(O)cc2O)cc1` returned an IC50 of 10 nM.
The same measure for `Cc1cc(S(=O)(=O)N2CCCCC2)cnc1-c1ccc(N(Cc2cccnc2)C(=O)c2ccc(O)cc2O)cc1`: 10 nM; for `COc1ccc(CN(C)C(=O)c2ccc(N(Cc3cccnc3)C(=O)c3ccc(O)cc3O)cc2)cc1`: 10 nM.
Then `CN(Cc1cccc2ncccc12)C(=O)c1ccc(N(Cc2cccnc2)C(=O)c2ccc(O)cc2O)cc1`, with 100 nM; and `COc1ccc(CN(C)C(=O)c2ccc(N(Cc3cccc(C)c3)C(=O)c3cc(Cl)c(O)cc3O)cc2)cc1`, with 1000 nM; and `C[C@H](c1ccccc1)N(C(=O)c1cc(Cl)c(O)cc1O)c1ccc(C(=O)N(C)C)cc1`, with 1000 nM.
As for `CN(C)C(=O)c1ccc(N(Cc2cccc(O)c2)C(=O)c2cc(Cl)c(O)cc2O)cc1`, the IC50 was determined as 100 nM.
Then `Cc1ccc(CN(C(=O)c2cc(Cl)c(O)cc2O)c2ccc(C(=O)N(C)C)cc2)cc1`, with 100 nM.
Consider `O=C(NC1CC1)c1ccc(N(Cc2cccnc2)C(=O)c2ccc(O)cc2O)cc1`, for which the IC50 is 1000 nM.
Then `Cc1cc(S(=O)(=O)N2CCOCC2)cnc1-c1ccc(N(Cc2cccnc2)C(=O)c2ccc(O)cc2O)cc1`, with 10 nM; and `CNC(=O)c1ccc(N(Cc2cccnc2)C(=O)c2ccc(O)cc2O)cc1`, with 1000 nM.
The compound `CN(Cc1ccc2nccnc2c1)C(=O)c1ccc(N(Cc2ccccc2)C(=O)c2ccc(O)cc2O)cc1` came in with an IC50 of 10 nM.
Then `CN(Cc1ccc2ccccc2n1)C(=O)c1ccc(N(Cc2ccccc2)C(=O)c2ccc(O)cc2O)cc1`, with 100 nM; and `CN(C)C(=O)c1ccc(N(Cc2cccc(C#N)c2)C(=O)c2cc(Cl)c(O)cc2O)cc1`, with 100 nM; and `COc1ccc(CNC(=O)c2ccc(N(Cc3ccccc3)C(=O)c3ccc(O)cc3O)cc2)cc1`, with 1000 nM.
The same measure for `CN(C)CCN(C)C(=O)c1ccc(N(Cc2ccccc2)C(=O)c2ccc(O)cc2O)cc1`: 1000 nM.
The same measure for `CN(Cc1ccnc2ccccc12)C(=O)c1ccc(N(Cc2cccnc2)C(=O)c2ccc(O)cc2O)cc1`: 100 nM; for `Cc1cc(S(=O)(=O)N2CCC(F)(F)CC2)cnc1-c1ccc(N(Cc2cccnc2)C(=O)c2ccc(O)cc2O)cc1`: 10 nM; for `Cc1cc(S(=O)(=O)NCc2cccnc2)cnc1-c1ccc(N(Cc2cccnc2)C(=O)c2ccc(O)cc2O)cc1`: 10 nM.
Consider `CNS(=O)(=O)c1cnc(-c2ccc(N(Cc3cccnc3)C(=O)c3ccc(O)cc3O)cc2)c(C)c1`, for which the IC50 worked out at 10 nM.
The same measure for `CN(Cc1cccc2ccccc12)C(=O)c1ccc(N(Cc2cccnc2)C(=O)c2ccc(O)cc2O)cc1`: 10 nM.
Then `CN(C)CCN(C)C(=O)c1ccc(N(Cc2cccnc2)C(=O)c2ccc(O)cc2O)cc1`, with 1000 nM; and `CN(Cc1cccs1)C(=O)c1ccc(N(Cc2cccnc2)C(=O)c2ccc(O)cc2O)cc1`, with 100 nM.
Then `CC(=O)NCCNS(=O)(=O)c1cnc(-c2ccc(N(Cc3ccccc3)C(=O)c3ccc(O)cc3O)cc2)c(C)c1`, with 10 nM.
`COc1ccc(CN(C)C(=O)c2ccc(N(Cc3ccccc3)C(=O)c3ccc(O)cc3O)cc2)cc1` had an IC50 of 100 nM.
Then `Cc1cc(S(=O)(=O)NCc2ccccc2)cnc1-c1ccc(N(Cc2ccccc2)C(=O)c2ccc(O)cc2O)cc1`, with 100 nM.
The same measure for `Cc1cc(S(=O)(=O)N2CCOCC2)cnc1-c1ccc(N(Cc2ccccc2)C(=O)c2ccc(O)cc2O)cc1`: 100 nM; for `CN(C)C(=O)c1ccc(N(Cc2ccccc2)C(=O)c2cc(Cl)c(O)cc2O)cc1`: 10 nM; for `Cc1cc(S(=O)(=O)NCCN(C)C)cnc1-c1ccc(N(Cc2cccnc2)C(=O)c2ccc(O)cc2O)cc1`: 100 nM.
Then `Cc1cc(S(=O)(=O)NCCCC(N)=O)cnc1-c1ccc(N(Cc2cccnc2)C(=O)c2ccc(O)cc2O)cc1`, with 10 nM; and `CN(C)C(=O)c1ccc(N(Cc2ccc(C(F)(F)F)cc2)C(=O)c2cc(Cl)c(O)cc2O)cc1`, with 100 nM.
Compound `Cc1cc(S(=O)(=O)NCc2cccs2)cnc1-c1ccc(N(Cc2ccccc2)C(=O)c2ccc(O)cc2O)cc1` registered an IC50 of 10 nM.
